pIC50, pKi: −log10 of the molar value. Active and inactive are the calls of the source. No cut-off for these calls is given here.
How the values were obtained:
[1] = system: Rattus norvegicus; assay: Cognitive enhancing effect in Sprague-Dawley rat assessed as effect on total exploration time for familiar objects in acquisition trial at 0.3 mg/kg, po administered 1 hr measured for 3 mins by novel object recognition test; format: functional, organism-based
[2] = target: T1, 5-hydroxytryptamine receptor 2C (Rattus norvegicus, UniProt P08909)
T1 sequence (P08909 whole entry): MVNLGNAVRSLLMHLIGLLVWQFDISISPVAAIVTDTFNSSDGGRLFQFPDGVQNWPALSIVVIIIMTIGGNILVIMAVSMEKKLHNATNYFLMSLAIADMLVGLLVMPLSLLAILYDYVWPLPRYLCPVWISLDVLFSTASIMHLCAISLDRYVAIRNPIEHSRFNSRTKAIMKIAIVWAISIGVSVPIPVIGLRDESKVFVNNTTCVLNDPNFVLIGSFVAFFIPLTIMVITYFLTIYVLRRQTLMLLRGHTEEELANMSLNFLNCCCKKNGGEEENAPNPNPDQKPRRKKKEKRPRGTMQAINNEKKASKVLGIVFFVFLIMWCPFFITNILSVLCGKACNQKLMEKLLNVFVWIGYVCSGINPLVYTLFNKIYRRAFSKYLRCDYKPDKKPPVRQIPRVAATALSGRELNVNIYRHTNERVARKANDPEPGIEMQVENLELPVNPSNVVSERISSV

[3] = target: D(2) dopamine receptor (Rattus norvegicus, UniProt P61169)
[4] = target: 5-hydroxytryptamine receptor 2A (Rattus norvegicus, UniProt P14842); assay: Displacement of [3H]-ketanserine from serotonin 5-HT2A receptor in rat brain cortex homogenates incubated for 30 mins by liquid scintillation counting
[5] = target: T2, 5-hydroxytryptamine receptor 6 (Homo sapiens, UniProt P50406); assay: biochemical
[6] = target: Histamine H1 receptor (Cavia porcellus, UniProt P31389)
Description: Displacement of [3H]-mepyramine from histamine H1 receptor in guinea pig cerebellum homogenates incubated for 60 mins by liquid scintillation counting

[7] = target: T3, 5-hydroxytryptamine receptor 1A (Rattus norvegicus, UniProt P19327)
T3 sequence (P19327 whole entry): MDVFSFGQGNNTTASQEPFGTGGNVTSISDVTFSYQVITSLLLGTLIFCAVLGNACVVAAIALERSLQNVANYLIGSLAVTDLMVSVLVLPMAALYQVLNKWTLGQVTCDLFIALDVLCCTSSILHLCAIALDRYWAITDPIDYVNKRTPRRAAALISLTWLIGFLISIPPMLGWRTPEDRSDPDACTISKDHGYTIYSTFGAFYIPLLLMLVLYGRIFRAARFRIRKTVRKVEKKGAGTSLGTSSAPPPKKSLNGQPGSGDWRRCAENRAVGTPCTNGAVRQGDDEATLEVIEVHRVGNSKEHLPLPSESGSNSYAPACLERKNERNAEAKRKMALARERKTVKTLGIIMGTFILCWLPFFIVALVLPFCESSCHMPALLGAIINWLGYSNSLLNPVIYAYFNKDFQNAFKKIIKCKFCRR

[8] = target: D(3) dopamine receptor (Rattus norvegicus, UniProt P19020)
[9] = target: T4, Adrenergic receptor alpha-1 (Rattus norvegicus, UniProt P15823+P23944+P43140)
T4 sequence (P15823 whole entry): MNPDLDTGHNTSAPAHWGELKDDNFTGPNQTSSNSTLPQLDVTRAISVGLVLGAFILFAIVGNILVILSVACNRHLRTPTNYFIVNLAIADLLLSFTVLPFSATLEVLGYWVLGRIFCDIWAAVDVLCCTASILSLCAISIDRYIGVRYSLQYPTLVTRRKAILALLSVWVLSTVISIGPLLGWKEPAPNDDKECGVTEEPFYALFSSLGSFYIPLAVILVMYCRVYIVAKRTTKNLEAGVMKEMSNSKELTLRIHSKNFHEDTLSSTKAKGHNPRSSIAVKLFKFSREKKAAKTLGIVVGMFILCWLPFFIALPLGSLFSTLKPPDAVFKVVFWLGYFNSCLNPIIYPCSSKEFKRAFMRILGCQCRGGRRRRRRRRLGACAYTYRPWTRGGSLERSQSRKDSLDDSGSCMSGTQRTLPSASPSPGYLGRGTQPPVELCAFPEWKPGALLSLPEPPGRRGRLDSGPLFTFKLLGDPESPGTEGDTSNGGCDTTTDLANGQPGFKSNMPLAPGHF
T4 sequence (P23944 whole entry): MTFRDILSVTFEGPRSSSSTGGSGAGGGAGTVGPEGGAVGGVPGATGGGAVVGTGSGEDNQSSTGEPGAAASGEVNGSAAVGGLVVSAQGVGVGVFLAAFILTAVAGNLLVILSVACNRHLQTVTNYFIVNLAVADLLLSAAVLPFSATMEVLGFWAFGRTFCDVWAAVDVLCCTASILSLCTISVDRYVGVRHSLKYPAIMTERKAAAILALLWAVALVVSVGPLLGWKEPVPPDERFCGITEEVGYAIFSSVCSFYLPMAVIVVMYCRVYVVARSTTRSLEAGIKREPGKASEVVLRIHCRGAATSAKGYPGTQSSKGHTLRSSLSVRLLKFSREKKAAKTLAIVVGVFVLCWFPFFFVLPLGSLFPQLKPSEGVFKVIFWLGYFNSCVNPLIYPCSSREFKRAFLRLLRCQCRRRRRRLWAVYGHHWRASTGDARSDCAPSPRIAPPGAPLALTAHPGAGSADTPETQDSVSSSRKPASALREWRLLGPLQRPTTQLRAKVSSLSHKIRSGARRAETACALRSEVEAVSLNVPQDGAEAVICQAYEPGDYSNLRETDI
T4 sequence (P43140 whole entry): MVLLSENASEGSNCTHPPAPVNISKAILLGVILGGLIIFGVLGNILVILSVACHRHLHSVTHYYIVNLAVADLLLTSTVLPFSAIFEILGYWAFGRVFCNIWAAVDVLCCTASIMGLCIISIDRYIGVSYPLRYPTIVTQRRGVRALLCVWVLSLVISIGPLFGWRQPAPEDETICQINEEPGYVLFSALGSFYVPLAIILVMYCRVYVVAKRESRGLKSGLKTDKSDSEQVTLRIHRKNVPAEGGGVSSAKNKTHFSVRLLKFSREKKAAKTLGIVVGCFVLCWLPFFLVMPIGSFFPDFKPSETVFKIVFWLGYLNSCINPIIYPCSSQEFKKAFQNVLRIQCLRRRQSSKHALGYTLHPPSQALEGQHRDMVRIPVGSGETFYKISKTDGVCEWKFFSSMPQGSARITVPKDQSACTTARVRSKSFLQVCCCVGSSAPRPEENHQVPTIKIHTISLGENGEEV
Description: Displacement of [3H]-prazosin from alpha-1 adrenergic receptor in rat cerebral cortex homogenates incubated for 60 mins by liquid scintillation counting

[10] = target: Voltage-gated inwardly rectifying potassium channel KCNH2 (Homo sapiens, UniProt Q12809)
Description: Inhibition of human ERG expressed in HEK293 cells at -50 mV holding potential by patch clamp assay

[11] = system: Mus musculus; assay: Induction of catalepsy in po dosed Kunming mouse measured after 60 secs; format: organism-based; conditions: in vivo, 1 min
[12] = species on record: Mus musculus; assay: animal or person; conditions: Kunming, po
Description: Antipsychotic activity in po dosed Kunming mouse assessed as reduction in MK-801-induced hyperactivity pretreated for 60 mins followed by MK-801 challenge measured for 90 mins

[13] = species on record: Mus musculus; assay: animal or person; conditions: Kunming, po; remark: listed apart in the source
Description: Antipsychotic activity in po dosed Kunming mouse assessed as reduction in apomorphine-induced climbing pretreated for 30 mins followed by apomorphine injection measured at 10 to 30 mins post dose

[14] = Therapeutic index, ratio of ED50 for catalepsy in Kunming mouse to ED50 for apomorphine-induced climbing in Kunming mouse; format: toxicity, organism-based; conditions: in vivo, read-out: Ratio ED50
[15] = Therapeutic index, ratio of ED50 for catalepsy in Kunming mouse to ED50 for MK-801-induced hyperactivity in Kunming mouse; format: toxicity, organism-based; conditions: in vivo, read-out: Ratio ED50
[16] = system: Mus musculus; assay: Induction of weight gain in Kunming mouse at 0.03 to 0.27 mg/kg, po administered for 28 days measured every day during compound dosing; format: organism-based; conditions: in vivo, 672 h
[17] = system: Rattus norvegicus; assay: Antipsychotic activity in po dosed Sprague-Dawley rat assessed as reduction in conditioned avoidance response measured at 90 mins post single dose; format: functional; conditions: 1.5 h
[18] = system: Rattus norvegicus; assay: Cognitive enhancing effect in Sprague-Dawley rat assessed as effect on total exploration time for familiar objects in acquisition trial at 0.2 mg/kg, po administered 1 hr measured for 3 mins by novel object recognition test; format: functional, organism-based
[19] = target: 5-hydroxytryptamine receptor 2A (Homo sapiens, UniProt P28223); assay: Agonist activity at serotonin 5-HT2A receptor (unknown origin) expressed in HEK293 cells assessed as induction of calcium flux at 10 uM after 60 mins by calcium 4-dye based FLIPR assay relative to control; format: functional, cell-based
[20] = target: T2, 5-hydroxytryptamine receptor 6; assay: Agonist activity at serotonin 5-HT6 receptor (unknown origin) expressed in HEK293 cells assessed as induction of calcium flux at 10 uM after 60 mins by calcium 4-dye based FLIPR assay relative to control; format: functional, cell-based
[21] = target: D(2) dopamine receptor (Homo sapiens, UniProt P14416); assay: Antagonist activity at dopamine D2 receptor long isoform (unknown origin) expressed in HEK293 cells assessed as inhibition of dopamine-induced calcium flux at 10 uM after 15 mins by calcium 4-dye based FLIPR assay relative to control; format: functional, cell-based
Chain of D(2) dopamine receptor (Homo sapiens, UniProt P14416) (P14416 whole entry, canonical isoform): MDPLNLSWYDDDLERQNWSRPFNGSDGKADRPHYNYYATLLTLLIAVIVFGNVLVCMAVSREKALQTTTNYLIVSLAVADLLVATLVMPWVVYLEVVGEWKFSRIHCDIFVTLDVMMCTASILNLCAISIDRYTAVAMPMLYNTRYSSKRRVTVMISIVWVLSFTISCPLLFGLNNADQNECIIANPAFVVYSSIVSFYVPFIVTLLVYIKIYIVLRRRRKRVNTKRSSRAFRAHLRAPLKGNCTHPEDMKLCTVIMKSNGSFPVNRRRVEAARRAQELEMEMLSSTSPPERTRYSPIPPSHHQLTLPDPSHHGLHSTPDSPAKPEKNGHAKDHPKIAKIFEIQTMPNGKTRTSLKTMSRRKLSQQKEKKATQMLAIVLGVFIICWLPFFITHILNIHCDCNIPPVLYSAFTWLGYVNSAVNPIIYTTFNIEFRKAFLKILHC

Chain of 5-hydroxytryptamine receptor 2A (Rattus norvegicus, UniProt P14842) (P14842 whole entry): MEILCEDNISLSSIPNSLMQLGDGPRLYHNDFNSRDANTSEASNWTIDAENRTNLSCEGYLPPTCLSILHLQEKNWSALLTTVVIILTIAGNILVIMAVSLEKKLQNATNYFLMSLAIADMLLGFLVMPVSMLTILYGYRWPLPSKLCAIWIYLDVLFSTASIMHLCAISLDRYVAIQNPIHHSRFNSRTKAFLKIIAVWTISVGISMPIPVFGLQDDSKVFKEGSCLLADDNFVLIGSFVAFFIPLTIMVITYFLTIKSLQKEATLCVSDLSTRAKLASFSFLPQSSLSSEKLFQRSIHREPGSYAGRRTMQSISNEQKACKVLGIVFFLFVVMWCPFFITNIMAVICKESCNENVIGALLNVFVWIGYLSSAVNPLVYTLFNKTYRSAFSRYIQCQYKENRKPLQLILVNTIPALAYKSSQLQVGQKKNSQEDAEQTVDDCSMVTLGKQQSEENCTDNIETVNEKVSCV
Chain of Histamine H1 receptor (P31389 whole entry): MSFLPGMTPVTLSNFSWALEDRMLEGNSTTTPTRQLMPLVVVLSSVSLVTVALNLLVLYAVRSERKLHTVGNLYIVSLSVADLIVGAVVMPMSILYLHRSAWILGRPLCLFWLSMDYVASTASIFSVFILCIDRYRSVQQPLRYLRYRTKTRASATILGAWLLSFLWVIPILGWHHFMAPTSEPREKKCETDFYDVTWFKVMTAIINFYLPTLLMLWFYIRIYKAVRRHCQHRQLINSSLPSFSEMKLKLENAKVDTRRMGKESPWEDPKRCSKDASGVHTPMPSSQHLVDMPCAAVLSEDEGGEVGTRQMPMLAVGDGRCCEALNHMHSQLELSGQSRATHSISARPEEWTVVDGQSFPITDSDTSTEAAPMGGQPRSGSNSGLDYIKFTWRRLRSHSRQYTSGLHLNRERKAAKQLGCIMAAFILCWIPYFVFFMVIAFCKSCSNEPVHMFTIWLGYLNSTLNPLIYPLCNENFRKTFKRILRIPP
Chain of D(2) dopamine receptor (Rattus norvegicus, UniProt P61169) (P61169 whole entry): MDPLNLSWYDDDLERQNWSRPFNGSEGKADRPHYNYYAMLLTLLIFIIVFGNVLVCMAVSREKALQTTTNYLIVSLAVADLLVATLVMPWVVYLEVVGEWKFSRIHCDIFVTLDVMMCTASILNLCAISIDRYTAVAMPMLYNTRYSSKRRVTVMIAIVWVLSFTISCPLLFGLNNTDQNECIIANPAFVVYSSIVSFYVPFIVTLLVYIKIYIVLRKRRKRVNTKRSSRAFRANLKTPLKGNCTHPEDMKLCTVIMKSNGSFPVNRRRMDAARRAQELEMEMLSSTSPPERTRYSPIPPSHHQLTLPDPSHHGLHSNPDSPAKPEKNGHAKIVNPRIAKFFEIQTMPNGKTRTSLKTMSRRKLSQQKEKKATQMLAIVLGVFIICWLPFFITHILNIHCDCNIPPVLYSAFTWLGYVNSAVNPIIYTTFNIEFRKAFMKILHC
Chain of D(3) dopamine receptor (P19020 whole entry): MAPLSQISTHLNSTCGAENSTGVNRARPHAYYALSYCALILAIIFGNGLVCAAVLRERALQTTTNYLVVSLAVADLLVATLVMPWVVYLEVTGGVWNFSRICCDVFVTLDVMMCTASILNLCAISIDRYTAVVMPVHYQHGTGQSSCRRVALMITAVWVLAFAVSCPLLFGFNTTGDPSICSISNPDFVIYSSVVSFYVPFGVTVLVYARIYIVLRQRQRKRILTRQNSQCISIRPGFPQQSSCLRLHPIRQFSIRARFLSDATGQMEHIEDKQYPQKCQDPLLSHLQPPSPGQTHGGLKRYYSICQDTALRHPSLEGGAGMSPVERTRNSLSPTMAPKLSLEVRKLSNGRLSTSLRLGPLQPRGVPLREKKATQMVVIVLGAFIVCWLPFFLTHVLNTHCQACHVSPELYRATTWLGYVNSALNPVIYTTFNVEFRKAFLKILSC
T2 sequence (P50406 whole entry): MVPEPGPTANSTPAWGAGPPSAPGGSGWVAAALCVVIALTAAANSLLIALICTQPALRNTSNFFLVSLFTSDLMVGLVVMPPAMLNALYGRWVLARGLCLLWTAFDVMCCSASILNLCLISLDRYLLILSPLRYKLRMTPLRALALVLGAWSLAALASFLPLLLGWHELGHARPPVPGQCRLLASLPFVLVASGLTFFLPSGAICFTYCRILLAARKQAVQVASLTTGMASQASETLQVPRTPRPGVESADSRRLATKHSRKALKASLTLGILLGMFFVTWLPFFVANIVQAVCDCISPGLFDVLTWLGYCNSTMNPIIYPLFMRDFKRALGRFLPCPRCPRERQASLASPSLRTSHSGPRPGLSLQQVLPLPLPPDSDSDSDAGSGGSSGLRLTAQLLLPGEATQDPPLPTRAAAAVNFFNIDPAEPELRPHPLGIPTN
Chain of Voltage-gated inwardly rectifying potassium channel KCNH2 (Q12809 whole entry): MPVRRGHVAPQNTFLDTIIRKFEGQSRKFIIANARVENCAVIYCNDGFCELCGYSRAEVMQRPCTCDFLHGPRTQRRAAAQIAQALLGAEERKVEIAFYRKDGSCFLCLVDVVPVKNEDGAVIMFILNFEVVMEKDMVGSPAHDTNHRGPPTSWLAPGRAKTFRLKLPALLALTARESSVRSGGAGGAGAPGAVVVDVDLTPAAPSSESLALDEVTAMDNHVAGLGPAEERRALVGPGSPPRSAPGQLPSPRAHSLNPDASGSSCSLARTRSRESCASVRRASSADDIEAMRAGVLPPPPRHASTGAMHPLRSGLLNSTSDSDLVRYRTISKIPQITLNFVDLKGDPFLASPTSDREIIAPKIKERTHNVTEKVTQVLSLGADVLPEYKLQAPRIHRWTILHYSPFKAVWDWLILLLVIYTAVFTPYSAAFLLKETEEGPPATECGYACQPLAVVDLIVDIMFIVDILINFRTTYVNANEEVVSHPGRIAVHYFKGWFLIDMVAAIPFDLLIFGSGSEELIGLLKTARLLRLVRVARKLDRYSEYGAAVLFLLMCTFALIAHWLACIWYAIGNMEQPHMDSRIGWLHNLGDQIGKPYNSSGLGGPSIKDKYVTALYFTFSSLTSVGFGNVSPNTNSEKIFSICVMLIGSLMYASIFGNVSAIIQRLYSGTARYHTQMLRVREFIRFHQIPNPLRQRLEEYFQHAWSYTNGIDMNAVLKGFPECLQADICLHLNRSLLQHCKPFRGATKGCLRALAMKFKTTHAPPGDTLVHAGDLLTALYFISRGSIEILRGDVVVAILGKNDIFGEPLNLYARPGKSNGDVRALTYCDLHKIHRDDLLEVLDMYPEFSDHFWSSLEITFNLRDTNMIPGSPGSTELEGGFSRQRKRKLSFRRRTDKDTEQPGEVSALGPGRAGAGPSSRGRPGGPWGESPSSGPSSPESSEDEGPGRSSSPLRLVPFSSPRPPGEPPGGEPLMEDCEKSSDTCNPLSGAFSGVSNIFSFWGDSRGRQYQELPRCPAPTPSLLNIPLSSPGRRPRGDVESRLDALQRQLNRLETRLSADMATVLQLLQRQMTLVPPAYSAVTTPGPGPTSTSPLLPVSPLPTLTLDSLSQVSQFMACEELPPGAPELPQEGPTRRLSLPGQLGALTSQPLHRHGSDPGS
Chain of 5-hydroxytryptamine receptor 2A (Homo sapiens, UniProt P28223) (P28223 whole entry): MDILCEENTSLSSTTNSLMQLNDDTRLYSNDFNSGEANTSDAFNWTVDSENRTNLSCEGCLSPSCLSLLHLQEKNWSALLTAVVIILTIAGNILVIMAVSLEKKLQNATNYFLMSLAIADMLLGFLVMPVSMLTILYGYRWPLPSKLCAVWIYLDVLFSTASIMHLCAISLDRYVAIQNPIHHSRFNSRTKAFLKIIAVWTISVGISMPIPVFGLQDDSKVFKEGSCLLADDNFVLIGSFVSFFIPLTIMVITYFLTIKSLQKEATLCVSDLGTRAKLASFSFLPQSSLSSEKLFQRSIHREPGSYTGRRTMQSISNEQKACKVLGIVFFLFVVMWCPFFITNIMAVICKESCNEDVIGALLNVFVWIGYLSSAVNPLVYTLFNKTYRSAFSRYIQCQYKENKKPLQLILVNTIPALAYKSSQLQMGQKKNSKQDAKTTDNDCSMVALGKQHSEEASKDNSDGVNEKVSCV

| Structure (SMILES) | pKi [2] | pKi [3] | pKi [4] | pKi [5] | pKi [6] | pKi [7] | pKi [8] | Ki [9] [nM] | further results |
| --- | --- | --- | --- | --- | --- | --- | --- | --- | --- |
| CCN(C)C(=O)Oc1cccc([C@H](C)N(C)C)c1 | – | – | – | – | – | – | – | – | Activity [1]: Active |
| O=C1CCc2cc(CCCCN3CCC(c4noc5cc(F)ccc45)CC3)cc3c2N1CC3 | 6.27 | 8.00 | 7.71 | 7.75 | 6.15 | 7.93 | 7.26 | 99.3 | – |
| O=C1CCc2cc(C(O)CCCN3CCC(c4noc5cc(F)ccc45)CC3)cc3c2N1CC3 (configuration not stated) | 6.13 | – | 7.16 | 8.20 | 6.47 | 7.65 | 7.34 | 339 | pIC50 [10]: 5.72 |
| O=C(CCCN1CCC(O)(c2ccc(Cl)cc2)CC1)c1ccc(F)cc1 [HALOPERIDOL] | – | – | – | – | – | – | – | – | ED50 [11]: 0.12 mg/kg; ED50 [12]: 0.16 mg/kg; ED50 [13]: 0.11 mg/kg; selectivity ratio [14]: 1.09; selectivity ratio [15]: 0.75 |
| Cc1nc2n(c(=O)c1CCN1CCC(c3noc4cc(F)ccc34)CC1)CCCC2 [RISPERIDONE] | – | – | – | – | – | – | – | – | ED50 [11]: 0.51 mg/kg; Activity [16]: Toxic; ED50 [17]: 0.52 mg/kg; ED50 [12]: 0.011 mg/kg; ED50 [13]: 0.28 mg/kg; Activity [18]: inactive |
| NCCc1c[nH]c2ccc(O)cc12 | – | – | – | – | – | – | – | – | Activity [19]: 94.5%; Activity [20]: 98% |
| O=C1CCc2cc(C(O)CCCCN3CCC(c4noc5cc(F)ccc45)CC3)cc3c2N1CC3 (configuration not stated) | 7.47 | 8.08 | 9.40 | 7.53 | 7.36 | 7.92 | 6.93 | 596 | – |
| O=C(CCCN1CCC(c2noc3cc(F)ccc23)CC1)c1cc2c3c(c1)CCN3C(=O)CC2 | 6.21 | 7.99 | 8.00 | 6.62 | 6.38 | 7.92 | 7.21 | 491.3 | – |
| CN1CCc2cc(Cl)c(O)cc2[C@@H](c2ccccc2)C1 | – | – | – | – | – | – | – | – | inhibition [21]: 99% |
